Measurements: patent US9732097B2, “Process for the synthesis of a phosphoinositide 3-kinase inhibitor” (Incyte Corporation, priority 2015, dated 2017)

Legend:
human JAK2 = human JAK2 (Homo sapiens (Human), UniProt O60674); assay: In vitro JAK kinase assay (Example D, HTRF), JAK2; assay type: biochemical; details: ratio of JAK2 to JAK1 IC50, 1 mM ATP
human JAK1 = human JAK1 (Homo sapiens, UniProt P23458); assay: In vitro JAK kinase assay (Example D, HTRF), JAK1; assay type: biochemical; details: 1 mM ATP

Chain of human JAK2 (O60674 828-1132): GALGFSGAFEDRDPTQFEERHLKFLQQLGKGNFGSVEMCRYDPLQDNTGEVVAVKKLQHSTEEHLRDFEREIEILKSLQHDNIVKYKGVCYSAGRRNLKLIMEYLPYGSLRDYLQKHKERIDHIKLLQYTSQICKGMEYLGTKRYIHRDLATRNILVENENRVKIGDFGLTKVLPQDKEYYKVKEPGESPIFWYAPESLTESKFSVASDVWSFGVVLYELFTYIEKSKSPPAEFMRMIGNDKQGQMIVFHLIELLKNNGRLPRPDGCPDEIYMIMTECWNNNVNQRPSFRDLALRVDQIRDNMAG

Compound | JAK2/JAK1 (human JAK2) | IC50 (human JAK1) [nM]
N#CC[C@]1(n2cc(-c3ncnc4[nH]ccc34)cn2)C[C@H](N2CCC(Oc3cc(CCO)cc(C(F)(F)F)n3)CC2)C1 [compound 26, {trans-3-(4-{[4-(2-hydroxyethyl)-6-(trifluoromethyl)pyridin-2-yl]oxy}piperidin-1-yl)-1-[4-(7H-pyrrolo[2,3-d]pyrimidin-4-yl)-1H-pyrazol-1-yl]cyclobutyl}acetonitrile] | >10 | < 10
C[C@@H](O)c1nc2cnc3ccsc3c2n1[C@H]1CC[C@H](CC#N)OC1 [compound 1, ((2R,5S)-5-{2-[(1R)-1-hydroxyethyl]-1H-imidazo[4,5-d]thieno[3,2-b]pyridin-1-yl}tetrahydro-2H-pyran-2-yl)acetonitrile] | >10 | < 100
N#CCC1(n2cc(-c3ncnc4[nH]ccc34)cn2)CN([C@H]2CC[C@@H](Oc3cc(CN4CC[C@@H](O)C4)cc(C(F)(F)F)n3)CC2)C1 [compound 21, {1-(cis-4-{[4-{[(3R)-3-hydroxypyrrolidin-1-yl]methyl}-6-(trifluoromethyl)pyridin-2-yl]oxy}cyclohexyl)-3-[4-(7H-pyrrolo[2,3-d]pyrimidin-4-yl)-1H-pyrazol-1-yl]azetidin-3-yl}acetonitrile] | >10 | < 10
N#CCC1(n2cc(-c3ncnc4[nH]ccc34)cn2)CN([C@H]2CC[C@@H](Oc3cc(CCO)nc(C(F)(F)F)n3)CC2)C1 [compound 18, {1-(cis-4-{[6-(2-hydroxyethyl)-2-(trifluoromethyl)pyrimidin-4-yl]oxy}cyclohexyl)-3-[4-(7H-pyrrolo[2,3-d]pyrimidin-4-yl)-1H-pyrazol-1-yl]azetidin-3-yl}acetonitrile] | >10 | < 10
C[C@@H](CO)NCc1cc(OC2CCN([C@H]3C[C@](CC#N)(n4cc(-c5ncnc6[nH]ccc56)cn4)C3)CC2)nc(C(F)(F)F)c1 [compound 23, {trans-3-(4-{[4-({[(1S)-2-hydroxy-1-methylethyl]amino}methyl)-6-(trifluoromethyl)pyridin-2-yl]oxy}piperidin-1-yl)-1-[4-(7H-pyrrolo[2,3-d]pyrimidin-4-yl)-1H-pyrazol-1-yl]cyclobutyl}acetonitrile] | >10 | < 10
N#CCC(CN1CCN(C(=O)c2ccc(C#N)cc2F)CC1)n1ccc(-c2ncnc3[nH]ccc23)c1 (stereo not drawn) [compound 6, 4-[(4-{3-cyano-2-[3-(7H-pyrrolo[2,3-d]pyrimidin-4-yl)-1H-pyrrol-1-yl]propyl}piperazin-1-yl)carbonyl]-3-fluorobenzonitrile] | >10 | < 10
C[C@@H](O)CNCc1cc(OC2CCN([C@H]3C[C@](CC#N)(n4cc(-c5ncnc6[nH]ccc56)cn4)C3)CC2)nc(C(F)(F)F)c1 [compound 24, {trans-3-(4-{[4-({[(2R)-2-hydroxypropyl]amino}methyl)-6-(trifluoromethyl)pyridin-2-yl]oxy}piperidin-1-yl)-1-[4-(7H-pyrrolo[2,3-d]pyrimidin-4-yl)-1H-pyrazol-1-yl]cyclobutyl}acetonitrile] | >10 | < 10
N#CCC1(n2cc(-c3ncnc4[nH]ccc34)cn2)CN(C2CCN(C(=O)c3ccnc(C(F)(F)F)c3F)CC2)C1 [compound 7, {1-{1-[3-Fluoro-2-(trifluoromethyl)isonico-tinoyl]piperidin-4-yl}-3-[4-(7H-pyrrolo[2,3-d]pyrimidin-4-yl)-1H-pyrazol-1-yl]azetidin-3-yl}acetonitrile] | >10 | < 10
N#CCC(C1CCN(c2nc3cccnc3o2)C1)n1cc(-c2ncnc3[nH]ccc23)cn1 (stereo not drawn) [compound 4, 3-(1-[1,3]oxazolo[5,4-b]pyridin-2-ylpyrrolidin-3-yl)-3-[4-(7H-pyrrolo[2,3-d]pyrimidin-4-yl)-1H-pyrazol-1-yl]propanenitrile] | >10 | < 10
N#CCC1(n2cc(-c3ncnc4[nH]ccc34)cn2)CN(C2CCN(C(=O)c3ccnc(C(F)(F)F)n3)CC2)C1 [compound 9, [3-[4-(7H-pyrrolo[2,3-d]pyrimidin-4-yl)-1H-pyrazol-1-yl]-1-(1-{[2-(trifluoromethyl)pyrim-idin-4-yl]carbonyl}piperidin-4-yl)azetidin-3-yl]acetonitrile] | >10 | < 10
C[C@H](NC(=O)c1cc(F)c(N2CC(CC#N)(n3cc(-c4ncnc5[nH]ccc45)cn3)C2)cc1F)C(F)(F)F [compound 16, 4-{3-(cyanomethyl)-3-[4-(7H-pyrrolo[2,3-d]pyrimidin-4-yl)-1H-pyrazol-1-yl]azetidin-1-yl}-2,5-difluoro-N-[(1S)-2,2,2-trifluoro-1-methylethyl]benzamide] | >10 | < 10

Other lines, results leading:

JAK2/JAK1 (human JAK2) | IC50 (human JAK1) [nM] | Compound
>10 | < 10 | N#CCC1(n2cc(-c3ncnc4[nH]ccc34)cn2)CN(C2CCN(C(=O)Nc3ccc(F)cc3C(F)(F)F)CC2)C1 [compound 8, 4-{3-(Cyanomethyl)-3-[4-(7H-pyrrolo[2,3-d]pyrimidin-4-yl)-1H-pyrazol-1-yl]azetidin-1-yl}-N-[4-fluoro-2-(trifluoromethyl)phenyl] piperidine-1-carboxamide]
>10 | < 10 | N#CC[C@]1(n2cc(-c3ncnc4[nH]ccc34)cn2)C[C@H](N2CCC(Oc3cc(CN4CCC[C@@H]4CO)cc(C(F)(F)F)n3)CC2)C1 [compound 13, {trans-3-(4-{[4-{[(2R)-2-(hydroxymethyl)pyrrolidin-1-yl]methyl}-6-(trifluoromethyl)pyridin-2-yl]oxy}piperidin-1-yl)-1-[4-(7H-pyrrolo[2,3-d]pyrimidin-4-yl)-1H-pyrazol-1-yl]cyclobutyl}acetonitrile]
>10 | < 10 | C[C@H](O)CNCc1cc(OC2CCN([C@H]3C[C@](CC#N)(n4cc(-c5ncnc6[nH]ccc56)cn4)C3)CC2)nc(C(F)(F)F)c1 [compound 25, {trans-3-(4-{[4-({[(2S)-2-hydroxypropyl]amino}methyl)-6-(trifluoromethyl)pyridin-2-yl]oxy}piperidin-1-yl)-1-[4-(7H-pyrrolo[2,3-d]pyrimidin-4-yl)-1H-pyrazol-1-yl]cyclobutyl}acetonitrile]
>10 | < 10 | N#CC[C@]1(n2cc(-c3ncnc4[nH]ccc34)cn2)C[C@H](N2CCN(C(=O)c3ccnc(C(F)(F)F)n3)CC2)C1 [compound 10, [trans-1-[4-(7H-pyrrolo[2,3-d]pyrimidin-4-yl)-1H-pyrazol-1-yl]-3-(4-{[2-(trifluoromethyl)pyrim-idin-4-yl]carbonyl}piperazin-1-yl)cyclobutyl]acetonitrile]
>10 | < 10 | CCNCc1cc(O[C@H]2CC[C@@H](N3CC(CC#N)(n4cc(-c5ncnc6[nH]ccc56)cn4)C3)CC2)nc(C(F)(F)F)c1 [compound 19, {1-(cis-4-{[4-[(ethylamino)methyl]-6-(trifluoromethyl)pyridin-2-yl]oxy}cyclohexyl)-3-[4-(7H-pyrrolo[2,3-d]pyrimidin-4-yl)-1H-pyrazol-1-yl]azetidin-3-yl]acetonitrile]
>10 | < 10 | N#CCC(CN1CCN(C(=O)c2ccc(C#N)cc2F)CC1)n1cc(-c2ncnc3[nH]ccc23)cn1 (stereo not drawn) [compound 5, 4-[(4-{3-cyano-2-[4-(7H-pyrrolo[2,3-d]pyrimidin-4-yl)-1H-pyrazol-1-yl]propyl}piperazin-1-yl)carbonyl]-3-fluorobenzonitrile]
>10 | < 10 | N#CCC(C1CCN(c2cccc(Cl)n2)C1)n1cc(-c2ncnc3[nH]ccc23)cn1 (single isomer, unassigned) [compound 3, 3-[1-(6-chloropyridin-2-yl)pyrrolidin-3-yl]-3-[4-(7H-pyrrolo[2,3-d]pyrimidin-4-yl)-1H-pyrazol-1-yl]propanenitrile]
>10 | < 10 | N#CC[C@]1(n2cc(-c3ncnc4[nH]ccc34)cn2)C[C@H](N2CCC(Oc3cc(CN4CCC[C@H]4CO)cc(C(F)(F)F)n3)CC2)C1 [compound 12, {trans-3-(4-{[4-{[(2S)-2-(hydroxymethyl)pyrrolidin-1-yl]methyl}-6-(trifluoromethyl)pyridin-2-yl]oxy}piperidin-1-yl)-1-[4-(7H-pyrrolo[2,3-d]pyrimidin-4-yl)-1H-pyrazol-1-yl]cyclobutyl}acetonitrile]
>10 | < 10 | N#CCC1(n2cc(-c3ncnc4[nH]ccc34)cn2)CN([C@H]2CC[C@@H](Oc3cc(CN4CC[C@H](O)C4)cc(C(F)(F)F)n3)CC2)C1 [compound 22, {1-(cis-4-{[4-{[(3S)-3-hydroxypyrrolidin-1-yl]methyl}-6-(trifluoromethyl)pyridin-2-yl]oxy}cyclohexyl)-3-[4-(7H-pyrrolo[2,3-d]pyrimidin-4-yl)-1H-pyrazol-1-yl]azetidin-3-yl}acetonitrile]
>10 | < 10 | N#CC[C@]1(n2cc(-c3ncnc4[nH]ccc34)cn2)C[C@H](N2CCC(Oc3cc(CN4CC(O)C4)cc(C(F)(F)F)n3)CC2)C1 [compound 11, {trans-3-(4-{[4-[(3-hydroxyazetidin-1-yl)methyl]-6-(trifluoromethyl)pyridin-2-yl]oxy}piperidin-1-yl)-1-[4-(7H-pyrrolo[2,3-d]pyrimidin-4-yl)-1H-pyrazol-1-yl]cyclobutyl}acetonitrile]
